Assay results taken from ChEMBL document CHEMBL1147920, “Identification of a novel class of succinyl-nitrile-based Cathepsin S inhibitors” (Bioorg Med Chem Lett, 2007).

Target: Cathepsin S (Homo sapiens, UniProt P25774)
Test: Inhibition of human cathepsin S

Chain of Cathepsin S (P25774 whole entry): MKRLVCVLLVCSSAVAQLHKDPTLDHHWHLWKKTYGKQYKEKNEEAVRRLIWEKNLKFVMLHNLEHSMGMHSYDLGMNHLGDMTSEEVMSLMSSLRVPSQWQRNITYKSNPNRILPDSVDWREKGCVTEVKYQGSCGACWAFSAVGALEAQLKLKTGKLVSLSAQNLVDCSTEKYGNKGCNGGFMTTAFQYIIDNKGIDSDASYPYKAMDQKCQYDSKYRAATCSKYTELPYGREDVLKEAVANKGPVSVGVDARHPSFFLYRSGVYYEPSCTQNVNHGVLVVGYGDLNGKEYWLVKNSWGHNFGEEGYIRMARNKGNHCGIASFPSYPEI

| Structure (SMILES) | IC50 [nM] | Kd [nM] |
| --- | --- | --- |
| N#C[C@@]1(NC(=O)[C@@H](CC(=O)N2CCOCC2)CC2Cc3ccccc3C2)CCN(C2CCCCC2)C1 | 42 | 23.1 |
| N#C[C@H](COCc1ccc(Cl)cc1)NC(=O)[C@@H](CC(=O)N1CCOCC1)CC1CCCCC1 | 62 | 4.86 |
| N#C[C@H](CCc1ccccc1)NC(=O)[C@@H](CC(=O)N1CCOCC1)CC1CCCCC1 | 171 | 25 |
| N#CC1(NC(=O)[C@@H](CC(=O)N2CCOCC2)CC2CCCCC2)CCN(Cc2ccccc2)CC1 | 207 | 52 |
| CN1CCC(C#N)(NC(=O)[C@@H](CC(=O)N2CCOCC2)CC2CCCCC2)CC1 | 251 | 177 |
| N#C[C@@]1(NC(=O)[C@@H](CC(=O)N2CCOCC2)CC2CCCCC2)CCN(C2CCCCC2)C1 | 23 | 17.8 |
| N#C[C@]1(NC(=O)[C@@H](CC(=O)N2CCOCC2)CC2CCCCC2)CCN(CC2CCCCC2)C1 | 41 | 13.8 |
| N#C[C@]1(NC(=O)[C@@H](CC(=O)N2CCOCC2)CC2CCCCC2)CCN(Cc2ccccc2)C1 | 29 | 3.64 |
| N#C[C@@]1(NC(=O)[C@@H](CC(=O)N2CCOCC2)CC2CCCCC2)CCN(CCc2ccccc2)C1 | 22.3 | 15.2 |
| CC1CCC(C[C@H](CC(=O)N2CCOCC2)C(=O)N[C@]2(C#N)CCN(C3CCCCC3)C2)CC1 (some centres undefined) | 14 | 13.8 |
| N#C[C@@]1(NC(=O)[C@@H](CC(=O)N2CCOCC2)CC2CCc3ccccc3C2)CCN(C2CCCCC2)C1 (some centres undefined) | 1.9 | 5.4 |
| N#C[C@@]1(NC(=O)[C@@H](CC(=O)N2CCOCC2)CC2CCC(c3ccccc3)CC2)CCN(C2CCCCC2)C1 (some centres undefined) | 3140 |  |
| CC(C)CN1CC[C@@](C#N)(NC(=O)[C@@H](CC(=O)N2CCOCC2)CC2CCCCC2)C1 | 39 | 53.3 |
| N#C[C@@]1(NC(=O)[C@@H](CC(=O)N2CCOCC2)CC2CCCCC2)CCN(C2CCCC2)C1 | 75 |  |
| N#C[C@@]1(NC(=O)[C@@H](CC(=O)N2CCOCC2)CC2CCCCC2)CCN(CC2CC2)C1 | 22 | 20 |
| N#C[C@H](COCc1ccccc1)NC(=O)[C@@H](CC(=O)N1CCOCC1)CC1CCCCC1 | 37 | 4.39 |
| N#CC1(NC(=O)[C@@H](CC(=O)N2CCOCC2)CC2CCCCC2)CC1 | 135 | 12 |
| CN1CC[C@@](C#N)(NC(=O)[C@@H](CC(=O)N2CCOCC2)CC2CCCCC2)C1 | 155 | 161 |
| CC(C)N1CC[C@@](C#N)(NC(=O)[C@@H](CC(=O)N2CCOCC2)CC2CCCCC2)C1 | 66 | 60.6 |
| N#C[C@@]1(NC(=O)[C@@H](CC(=O)N2CCOCC2)CC2CCCC2)CCN(C2CCCCC2)C1 | 63 | 59 |
| CC1(C[C@H](CC(=O)N2CCOCC2)C(=O)N[C@]2(C#N)CCN(C3CCCCC3)C2)CCCCC1 | 47 | 77.3 |
| N#C[C@@]1(NC(=O)[C@@H](CC(=O)N2CCOCC2)CC2CCCCC2)CCNC1 | 141 | 123 |
| N#C[C@@]1(NC(=O)[C@@H](CC(=O)N2CCOCC2)CC2CCCCC2)CCN(C2CCCCCC2)C1 | 23 | 11 |
